The pIC50 is the IC50 on a negative log10 scale, so that one unit is a factor of ten.

We go through 15 compounds from ChEMBL document CHEMBL3044852, “Synthesis of N-hydroxycinnamoyl amino acid ester analogues and their free radical scavenging and antioxidative activities” (Med Chem Res, 2012).

Test [1] is described as follows: Antioxidant activity assessed as DPPH scavenging activity after 30 min by UV-vis spectroscopy. The test is classed as functional.
Test [2] in a line: Antioxidant activity against AAPH-induced hemolysis in Homo sapiens (human) RBC assessed as inhibition time at 10 uM by spectrophotometry. The format is functional, Erythrocyte.

pIC50: −log10 of the molar value.

Regarding `CCOC(=O)[C@H](Cc1ccccc1)NC(=O)/C=C/c1ccc(O)c(OC)c1`, the negative logarithm of the IC50 (pIC50) in test [1] was 4.28. The Time in test [2] was found to be 198 min. The matching figures for `CCOC(=O)CNC(=O)/C=C/c1ccc(O)c(O)c1`: 4.89 and 180 min. Take `O=C1O[C@H]([C@@H](O)CO)C(O)=C1O` [ASCORBIC ACID]: the pIC50 in test [1] is 4.53. Consider `CCOC(=O)CNC(=O)/C=C/c1ccc(O)c(OC)c1`, for which the pIC50 in test [1] was 4.19. For the same compound, the Time in test [2] was determined as 193 min. For the compound `CCOC(=O)CNC(=O)/C=C/c1ccc(O)cc1`, the pIC50 in test [1] was under 3.70. For the same compound, the Time in test [2] is 138 min.

Take `O=C(O)/C=C/c1ccc(O)c(O)c1` [CAFFEIC ACID]: the pIC50 in test [1] was 4.74. Still for that read-out and setting: then `O=C(O)/C=C/c1ccc(O)cc1` [COUMARIC ACID], with under 3.70. Regarding `COc1cc(/C=C/C(=O)O)ccc1O` [FERULATE], the pIC50 in test [1] is 4.30. Further, the Time in test [2] is given as 148 min. For the compound `CCOC(=O)/C=C/c1ccc(O)cc1` [ETHYL P-COUMARATE], in test [1], the pIC50 was under 3.70. For the compound `CCOC(=O)/C=C/c1ccc(O)c(OC)c1` [ETHYL FERULATE], the pIC50 in test [1] was 3.82. For the same compound, the Time in test [2] came to 150 min. With `CCOC(=O)[C@@H](NC(=O)/C=C/c1ccc(O)c(OC)c1)C(C)C`, the negative-log IC50 (pIC50) in test [1] is 4.06. The same measure, in the same setting: then `CCOC(=O)/C=C/c1ccc(O)c(O)c1` [ETHYL CAFFEATE], with 4.31; and `CCOC(=O)[C@H](Cc1ccccc1)NC(=O)/C=C\c1ccc(O)cc1`, with under 3.70. The same measure, in the same setting: the value for `CCOC(=O)[C@H](Cc1ccccc1)NC(=O)/C=C/c1ccc(O)c(O)c1` was 5.84; that for `COC(=O)[C@H](Cc1ccc(O)cc1)NC(=O)/C=C/c1ccc(O)cc1` was under 3.70.
